Measurements from US20060280820A1, “Use of an extract of Aloysia/Verbena/Lippia triphylla/citriodora for the treatment of chronic and/or inflammatory diseases” (priority 2003, published 2006).

Test: Degradation of glycosaminoglycanes by reactive oxygen species (FIG. 2)
Format: biochemical
Conditions: free ferrous ions and hydrogen peroxide; pH value 7.2, 37 degrees Celsius

SMILES: O=C1O[C@H]([C@@H](O)CO)C(O)=C1O [vitamin C]
- degradation of glycosaminoglycanes by reactive oxygen species: enhances the degradation of glycosaminoglycanes
